{"source": "patent US5668265A", "about": "“Bi-directional oligonucleotides that bind thrombin” (Becton Dickinson and Company, priority 1996, dated 1997)", "key": {"human α thrombin": {"biological_target": "human α thrombin", "test": "Competitive binding assay on BIAcore (SPR) against immobilized consensus aptamer", "conditions": "for Kd: 80 nM human α thrombin, 25° C., pH 7.4, competition with immobilized consensus aptamer, read-out: Apparent Kd", "method": "Competitive binding assays were used to determine the thrombin binding affinity of the various bi-directional oligonucleotides relative to the affinity of the known thrombin aptamer ^5' GGTTGGTGTGGTTGG^3' (SEQ ID NO:4) (hereafter called the \"consensus\" aptamer; Bock, L. C. et al, Nature 355, 564 (1992)). The assays were performed on a BIAcore™ biosensor instrument (Pharmacia Biosensor, Uppsala Sweden) by means of Surface Plasmon Resonance (SPR) detection of thrombin bound to consensus aptamer immobilized as described in U.S. patent application Ser. No. 0802,383, now abandoned, filed Aug. 5, 1993 incorporated herein by reference. Competition experiments were conducted at 25° C. by pre-incubating 80 nM human α thrombin for 30 minutes with various concentrations of the bi-directional oligonucleotide to be measured, in a buffer composed of 20 mM Tris-Acetate, 140 mM NaCl, 5 mM KCl, 1 mM CaCl2, 1 mM MgCl2 (pH 7.4). This solution was then passed over the surface containing immobilized consensus aptamer at a flow rate of 3 μL per minute for 10 minutes. The steady state response was measured as a function of bi-directional oligonucleotide concentration. The competition data were analyzed assuming that thrombin and the solution phase oligonucleotide bind monovalently and that thrombin molecules bound to a solution phase oligonucleotide are prohibited from binding to the immobilized consensus aptamer.\nIn this analysis, the steady state response in the presence of oligonucleotide is proportional to the surface concentration of bound thrombin, and apparent equilibrium dissociation constants (Kd 's) were determined from the variation in SPR response as a function of bi-directional oligonucleotide concentration. (Data were fit to eqn 31 of Pisarchick, M. L. and Thompson, N. L., Biophys J. 58, 1235, to yield the Kd values. In this analysis, it was assumed that the concentration nucleic acid ligand free in solution is equal to the total nucleic acid ligand concentration). The values determined are shown below (SEQ ID NO:4): […]"}, "bovine thrombin": {"system": "bovine thrombin", "test": "Clot time assay in platelet-poor porcine plasma with added thrombin", "type": "biochemical", "conditions": "room temperature, FIG. 2", "method": "PPP was prepared by separating cells from […] by centrifugation of whole citrated porcine blood (Environmental Diagnostics Inc.). Approximately 0.5 ml of PPP was added to 12×75 mm polystyrene test tubes (FALCON, Becton Dickinson) and equilibrated to room temperature in a water bath for 15 minutes. Following equilibration, 25 μl of 250 μg/ml bovine thrombin (Sigma) in saline was added along with varying amounts of bi-directional nucleic acid ligand compounds prepared in Example 3 (specifically Compound #5 and Compound #9) in saline and sufficient saline diluent to bring the total volume to 0.6 ml. At this time 50 μl of 0.4M CaCl2 was added to initiate coagulation and the tubes were quickly capped. Tube contents were mixed on a laboratory inverting mixer and time of clotting noted for each tube type."}, "[1]": {"system": "3'-exonuclease (Phosphodiestase I; C. adamanteus Venon)", "type": "in vitro ADME", "conditions": "0.005 units exonuclease, 37° C., pH 8.8; for Approximate Half-Life: estimated by visual inspection of autoradiogram", "method": "It is expected that the 3'--3' linked oligonucleotides will show similar resistance to 3'-exonucleases found in\nThe various bi-directional nucleic acid ligands to be tested were first labeled with radioactive (^32 p) phosphate as follows:\n200 pmol of each oligonucleotide was incubated at 37° C. for 30 minutes in 20 μl of a solution containing 3.0 mM Tricine (pH 7.6), 50 mM TRIS-HCl (pH8), 10 mM MgCl2, 5 mM DTT, 1.0 μM γ-^32 P-ATP (3000 Ci/mmol, 10 mCi/mL), 10 units T4 polynucleotide kinase (New England Biolabs). This labeling reaction was then terminated by heating the mixture at 95° C. for 3 minutes.\nTo test the resistance of the ^32 P-labeled oligonucleotides to the 3' exonuclease, the following reaction mixtures were assembled: Each bi-directional nucleic acid ligand (25 pmole) was dissolved in 100 μl containing 55 mM Tris-HCl, 55 mM NaCl, 7.5 mM MgCl2 (all at pH8.8). To this mixture 0.005 units of the exonuclease (Phosphodiestase I; C. adamanteus Venon; Pharmacia Biotech, Inc.) was added and the sample was mixed and incubated at 37° C. Five μL aliquots of each reaction were removed at 3, 10, 30, 60, and 100 minutes. The reactions were quenched by placing the aliquots into 25 μL solutions containing 50% (w/v) urea, 20 mM Na2 EDTA, and 0.05% bromophenol blue/zylene cylanol and heating the sample to 90° C. for 2 minutes. The reaction products were analyzed by electrophoretic separation on a denaturing polyacrylamide gel and subsequent autoradiagraphy of the gel.\nThe half-lives of the various bi-directional nucleic acid ligands under these conditions were estimated by visual inspection of autoradiogram (SEQ ID NO:4): […]"}}}
{"substance": "^5' GGTTGGTG^3' -p-^3' TGGTTGG^5' [Compound 1]", "values": [{"measurement": "Kd", "setting": "human α thrombin", "result": 224, "unit": "nM"}]}
{"substance": "^5' GGTTGGTT^3' -L1 -^3' TTGGTTGG^5' (DNA, backbone not given here; two strands joined 3'-3' by hexaethylene glycol phosphodiester linker, further chemistry not fully specified) [Compound 6, 3'-3' bi-directional oligonucleotide linked through hexaethylene glycol phosphodiester]", "values": [{"measurement": "inhibition of exogenous thrombin in plasma (clot time)", "setting": "bovine thrombin", "result": "inhibits thrombin in porcine plasma"}, {"measurement": "Kd", "setting": "human α thrombin", "result": 10, "unit": "nM"}, {"measurement": "thrombin affinity (in words)", "setting": "human α thrombin; thrombin", "result": "high affinity for thrombin"}]}
{"substance": "^5' GGTTGGT^3' -L1 -^3' TGGTTGG^5' (DNA, backbone not given here; two strands joined 3'-3' through linker L1, further chemistry not fully specified) [Compound 5, 3'-3' bi-directional oligonucleotide linked through hexaethylene glycol phosphodiester]", "values": [{"measurement": "inhibition of exogenous thrombin in plasma (clot time)", "setting": "bovine thrombin", "result": "inhibition of exogenous thrombin in plasma"}, {"measurement": "Kd", "setting": "human α thrombin", "result": 9, "unit": "nM"}, {"measurement": "Ka (thrombin binding affinity)", "setting": "human α thrombin; thrombin", "result": "> 10^7 M^-1"}, {"measurement": "Approximate Half-Life", "setting": "[1]", "result": 30, "unit": "min"}]}
{"substance": "^5' GGTTGGTGTGGTTGG^3' [Compound 10, reference compound]", "values": [{"measurement": "Kd", "setting": "human α thrombin", "result": 6, "unit": "nM"}, {"measurement": "time to complete degradation by the 3'-exonuclease", "setting": "[1]", "result": "less than 3 minutes"}, {"measurement": "Approximate Half-Life", "setting": "[1]", "result": "< 3", "unit": "min"}]}
{"substance": "^5' GGTTGGTT^3' -p-^3' TTGGTTGG^5' [Compound 2]", "values": [{"measurement": "Kd", "setting": "human α thrombin", "result": 312, "unit": "nM"}]}
{"substance": "^5' GGTTGGTT^3' (DNA, backbone not given here) [Compound 12, single oligonucleotide segment, control, reference compound]", "values": [{"measurement": "Kd", "setting": "human α thrombin", "result": 1500, "unit": "nM"}]}
{"substance": "^5' GGTTGGTTG^3' -p-^3' TTGGTTGG^5' [Compound 3]", "values": [{"measurement": "Kd", "setting": "human α thrombin", "result": 11, "unit": "nM"}, {"measurement": "Approximate Half-Life", "setting": "[1]", "result": "> 100", "unit": "min"}]}
{"substance": "^3' GGTTGGTT^5' -p-^5' TTGGTTGG^3' [Compound 4]", "values": [{"measurement": "Kd", "setting": "human α thrombin", "result": 25, "unit": "nM"}]}
{"substance": "5'-GGTTGGT-3' (DNA, backbone not given here) [a single copy of this sequence, reference compound]", "values": [{"measurement": "thrombin affinity (in words)", "setting": "human α thrombin; thrombin", "result": "does not have high affinity for thrombin"}]}
